Experimental data reported in PMC10064984, “Anti-cyclooxygenase, anti-glycation, and anti-skin aging effect of Dendrobium officinale flowers’ aqueous extract and its phytochemical validation in aging” (Frontiers in Immunology, 2023).
Several values for one entry are separate records, joined by “and”; a condition that tells them apart may be missing. Equal values may be shown once. Read-outs that look alike come from different tables or passages of the source.

Tests used:
type I collagen in HDFs = experiment: Collagen type I immunofluorescence staining in HDFs; type: cell-based, human; settings: for COL I staining: VC positive control, NT = 100%, replicates and AVE, listed as VC
Method: (§1) HDFs were cultured in DMEM with 10% (v/v) FBS and 1% PS at 37°C in a humidified 5% CO2 incubator. Cells were subcultured using pancreatin solution after reaching confluence. All experiments were performed between the third and eighth passages.
(§2) The synthesis of collagen types I and III was detected using IF ([26]) and ELISA ([27]). HDFs were digested and seeded in a 24-well culture plate on slides at a density of 50,000 cells/well in a complete medium. After reaching 80% confluency, cells were starved with the medium in the absence of serum for 16 h. Cells were then treated with positive controls or active samples (prepared in medium without serum) for an additional 48 h. For analysis and visualisation of types I and III collagens, the supernatants and remaining cell slides were both collected and analysed using ELISA kits and the IF staining method, respectively.
(§3) Collected supernatants were centrifuged at 10,000 rpm for 10 min and used for types I and III collagen ELISA, according to the manufacturer’s protocol. The remaining cell slides were washed once with PBS and fixed in polyformaldehyde overnight at 4°C. Subsequently, the slides were treated with 0.5% Triton-X100 for 5 min. After washing, cells were blocked with 1% BSA at room temperature for 1 h. Cells were then incubated with types I and type III collagen primary antibodies (1:100) for 2 h at room temperature. […] Finally, the nuclei were counter-stained with DAPI, and relevant fluorescent images were captured using a microscope. ImageJ software was used to quantify collagen expression from different images randomly selected in each group.

[1] = test system: type III collagen in HDFs; experiment: Collagen type III immunofluorescence staining in HDFs; type: cell-based, human; settings: for COL III staining: VC positive control, NT = 100%, replicates and AVE, listed as VC
Method: as §1, §2, §3

[2] = test system: secreted type I collagen of HDFs; experiment: Extracellular collagen type I ELISA on HDFs; type: cell-based, human; settings: for COL I (ELISA): VC positive control, replicates and AVE, listed as VC
Method: as §1, §2, §3

[3] = test system: secreted type III collagen of HDFs; experiment: Extracellular collagen type III ELISA on HDFs; type: cell-based, human; settings: VC positive control, replicates and AVE, listed as VC
Method: as §1, §2
Collected supernatants were centrifuged at 10,000 rpm for 10 min and used for types I and III collagen ELISA, according to the manufacturer’s protocol. The remaining cell slides were washed once with PBS and fixed in polyformaldehyde overnight at 4°C. Subsequently, the slides were treated with 0.5% Triton-X100 for 5 min. After washing, cells were blocked with 1% BSA at room temperature for 1 h. […] ImageJ software was used to quantify collagen expression from different images randomly selected in each group.

[4] = Fluorescent AGEs formation in a BSA-fructose/glucose system; type: biochemical; settings: for IC50: read-out: BSA-glycation IC50
Outline: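 BSA glycated in vitro with D-glucose and D-fructose while test samples, dissolved in DMSO:water (1:4), were present. Percent inhibition of fluorescent AGE formation calculated from fluorescence corrected for sample-only and BSA-free blanks; triplicate.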

[5] = test system: CML expression in MGO-induced HDFs; experiment: Glycation cell assay: CML expression in MGO-induced HDFs (IF); type: cell-based, human; settings: positive compound
Method: Based on previously reported methods ([25]), human primary dermal fibroblasts (HDFs) were induced by MGO to establish a cell model of high CML expression.
HDFs were cultured in high-glucose DMEM supplemented with 10% FBS containing 100 µg/ml of PS at 37°C in a humidified 5% CO2 incubator. Cell viability was assessed using the CCK-8 kit. HDFs were cultured in 12-well plates to approximately 70% confluence and then treated with 0.5 mmol/L of MGO for 48 h to induce glycation and the formation of CML. Subsequently, different concentrations of samples were added and co-cultured with MGO for an additional 48 h. Cells were then washed once with PBS and fixed in polyformaldehyde overnight at 4°C. Triton-X-100 solution (0.1%) was assigned to fixed cells for 5 min at room temperature to improve cell membrane permeability. After washing twice with PBS, cells were blocked in 1% BSA for 1 h, followed by incubation with the primary CML antibody (1:50) overnight at 4°C. […] Counterstaining was performed by adopting anti-fluorescence quenching and sealing liquid containing DAPI, followed by visualisation and fluorescence image capture using a microscope (Leica, Germany). ImageJ software was used to quantify CML expression from different images randomly selected in each group.

SMILES	collagen type I expression (IF) (type I collagen in HDFs; VC 200 μg/ml, positive control)	COL I staining (type I collagen in HDFs)	COL I staining (type I collagen in HDFs; mean)	collagen type III expression (IF) ([1]; VC 200 μg/ml, positive control)	COL III staining [1]	COL III staining ([1]; mean)	COL I (ELISA) [2]	COL I (ELISA) ([2]; mean)	increase of secreted collagen type I levels ([2]; VC, 48 h, culture medium)	COL III (ELISA) [3]	COL III (ELISA) ([3]; mean)	fluorescent AGEs IC50 [4]	inhibition of fluorescent AGEs formation (BSA-抗糖化), single replicate ([4]; 15.625 ug/ml)	IC50 ([4]; lower part of sheet (compound series))	IC50 ([4]; mean ± SD, n = 3)	BSA-glycation IC50 ([4]; upper part of sheet (extract series))	IC50 ([4]; upper part of sheet (extract series), positive control also given in μM)	inhibition of glycation (CML) [5]
O=C1O[C@H]([C@@H](O)CO)C(O)=C1O [vitamin C]	190.20 % of control	173.88% and 170.79% and 188.58% and 168.29% and 249.47%	190.20%	125.90 % of control	118.22% and 137.59% and 116.52% and 131.28%	125.90%	646.77 pg/mL and 611.41 pg/mL and 656.93 pg/mL	638.37 pg/mL	21.94%	2.70 ng/mL and 2.97 ng/mL and 3.15 ng/mL	2.94 ng/mL							
Cl.N=C(N)NN [AG, Aminoguanidine hydrochloride, reference compound]												177.3 ± 11.6 µg/mL	-1.16% and 3.22%	1620 ± 111 µM	1600 µM	178.47 ± 12.27 µg/mL	1620 ± 111 µM	88.11%
